Test results: patent publication US11802120B2, “Fused cyclic urea derivatives as CRHR2 antagonist” (RaQualia Pharma Inc., priority 2018, dated 2023)

Target: T1, human CRHR2-alpha (Homo sapiens, UniProt Q13324)
T1 sequence (Q13324 1-411): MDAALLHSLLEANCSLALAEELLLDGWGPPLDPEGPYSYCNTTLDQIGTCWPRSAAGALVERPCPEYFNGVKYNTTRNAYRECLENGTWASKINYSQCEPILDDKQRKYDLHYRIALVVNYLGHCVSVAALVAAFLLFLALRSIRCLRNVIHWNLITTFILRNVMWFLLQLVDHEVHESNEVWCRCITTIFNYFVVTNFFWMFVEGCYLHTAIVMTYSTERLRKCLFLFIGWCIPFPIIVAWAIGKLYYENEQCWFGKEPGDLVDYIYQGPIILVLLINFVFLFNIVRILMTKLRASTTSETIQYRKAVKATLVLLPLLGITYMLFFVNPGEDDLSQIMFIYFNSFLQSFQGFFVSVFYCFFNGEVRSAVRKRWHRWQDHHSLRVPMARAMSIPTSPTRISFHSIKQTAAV
Assay: cAMP functional assay for human CRHR2 (LANCE Ultra cAMP, TR-FRET)
Format: cell-based
Conditions: CHO-K1 cells expressing human CRHR2-alpha, agonist human urocortin2 at EC80, cAMP; read-out: IC50 against CRHR2
Outline: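 Inhibition of agonist-driven cAMP was assessed in recombinant CHO-K1 cells at 25° C, using 30 min compound pretreatment and 30 min stimulation with EC80 human urocortin2 (CRHR2) or CRF (CRHR1). IC50 came from dose-response fitting.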

| IC50 [µM] | Structure (SMILES) |
| --- | --- |
| < 0.3 | O=C(N[C@H]1CC[C@H](Cn2c(=O)n(-c3ccc(N[C@H]4CCOC4)nc3)c3ccccc32)CC1)c1cc(Cl)cnc1C(F)F [Example 372, 5-chloro-2-(difluoromethyl)-N-((1S,4r)-4-((2-oxo-3-(6-(((S)-tetrahydrofuran-3-yl)amino)pyridin-3-yl)-2,3-dihydro-1H-benzo[d]imidazol-1-yl)methyl)cyclohexyl)nicotinamide] |
| < 0.3 | N#Cc1ccncc1-n1c(=O)n(C[C@H]2CC[C@H](NC(=O)c3cc(Cl)cnc3C(F)F)CC2)c2ccccc21 [Example 373, 5-chloro-N-((1r,4r)-4-((3-(4-cyanopyridin-3-yl)-2-oxo-2,3-dihydro-1H-benzo[d]imidazol-1-yl)methyl)cyclohexyl)-2-(difluoromethyl)nicotinamide] |
| < 0.3 | Cn1ncc2c(-n3c(=O)n(C[C@H]4CC[C@H](NC(=O)c5cc(Cl)cnc5C(F)F)CC4)c4ccccc43)cccc21 [Example 374, 5-chloro-2-(difluoromethyl)-N-((1r,4r)-4-((3-(1-methyl-1H-indazol-4-yl)-2-oxo-2,3-dihydro-1H-benzo[d]imidazol-1-yl)methyl)cyclohexyl) nicotinamide] |
| < 0.3 | N#Cc1cccnc1-n1c(=O)n(C[C@H]2CC[C@H](NC(=O)c3cc(Cl)cnc3C(F)F)CC2)c2ccccc21 [Example 375, 5-chloro-N-((1r,4r)-4-((3-(3-cyanopyridin-2-yl)-2-oxo-2,3-dihydro-1H-benzo[d]imidazol-1-yl)methyl)cyclohexyl)-2-(difluoromethyl)nicotinamide] |
| < 0.3 | Cc1ccc(-n2c(=O)n(C[C@H]3CC[C@H](NC(=O)c4cc(Cl)cnc4C(F)F)CC3)c3ccccc32)c(C)n1 [Example 376, 5-chloro-2-(difluoromethyl)-N-((1r,4r)-4-((3-(2,6-dimethyl-pyridin-3-yl)-2-oxo-2,3-dihydro-1H-benzo[d]imidazol-1-yl)methyl)cyclohexyl) nicotinamide] |
| < 0.3 | Cc1cc(-n2c(=O)n(C[C@H]3CC[C@H](NC(=O)c4cc(Cl)cnc4C(F)F)CC3)c3ccccc32)ccn1 [Example 377, 5-chloro-2-(difluoromethyl)-N-((1r,4r)-4-((3-(2-methyl-pyridin-4-yl)-2-oxo-2,3-dihydro-1H-benzo[d]imidazol-1-yl)methyl)cyclohexyl) nicotinamide] |
| < 0.3 | O=C(N[C@H]1CC[C@H](Cn2c(=O)n(-c3ccc(N[C@@H]4CCOC4)nc3)c3ccccc32)CC1)c1cc(Cl)cnc1C(F)F [Example 379, 5-chloro-2-(difluoromethyl)-N-((1R,4r)-4-((2-oxo-3-(6-(((R)-tetrahydrofuran-3-yl)amino)pyridin-3-yl)-2,3-dihydro-1H-benzo[d]imidazol-1-yl)methyl)cyclohexyl) nicotinamide] |
| < 0.3 | CNc1ccc(-n2c(=O)n(C[C@H]3CC[C@H](NC(=O)c4cc(Cl)cnc4C(F)F)CC3)c3ccccc32)cn1 [Example 380, 5-chloro-2-(difluoromethyl)-N-((1r,4r)-4-((3-(6-(methyl-amino)pyridin-3-yl)-2-oxo-2,3-dihydro-1H-benzo[d]imidazol-1-yl)methyl)cyclo-hexyl)nicotinamide] |
| < 0.3 | CN(C)c1ccc(-n2c(=O)n(C[C@H]3CC[C@H](NC(=O)c4cc(Cl)cnc4C(F)F)CC3)c3ccccc32)cn1 [Example 381, 5-chloro-2-(difluoromethyl)-N-((1r,4r)-4-((3-(6-(dimethyl-amino)pyridin-3-yl)-2-oxo-2,3-dihydro-1H-benzo[d]imidazol-1-yl)methyl)cyclo-hexyl)nicotinamide] |
| < 0.3 | CN(CCO)c1ccc(-n2c(=O)n(C[C@H]3CC[C@H](NC(=O)c4cc(Cl)cnc4C(F)F)CC3)c3ccccc32)cn1 [Example 382, 5-chloro-2-(difluoromethyl)-N-((1r,4r)-4-((3-(6-((2-hydroxyethyl)(methyl)amino)pyridin-3-yl)-2-oxo-2,3-dihydro-1H-benzo[d]imidazol-1-yl)methyl)cyclohexyl)nicotinamide] |
| < 0.3 | O=C(N[C@H]1CC[C@H](Cn2c(=O)n(-c3ccc(N4CCOCC4)nc3)c3ccccc32)CC1)c1cc(Cl)cnc1C(F)F [Example 383, 5-chloro-2-(difluoromethyl)-N-((1r,4r)-4-((3-(6-morpholino-pyridin-3-yl)-2-oxo-2,3-dihydro-1H-benzo[d]imidazol-1-yl)methyl)cyclohexyl) nicotinamide] |
| < 0.3 | O=C(N[C@H]1CC[C@H](Cn2c(=O)n(-c3ccc(CO)cc3)c3ccccc32)CC1)c1cc(Cl)cnc1C(F)F [Example 384, 5-chloro-2-(difluoromethyl)-N-((1r,4r)-4-((3-(4-(hydroxy-methyl)phenyl)-2-oxo-2,3-dihydro-1H-benzo[d]imidazol-1-yl)methyl)cyclohexyl) nicotinamide] |
| < 0.3 | O=C(N[C@H]1CC[C@H](Cn2c(=O)n(-c3ccc4c(c3)nnn4CCO)c3ccccc32)CC1)c1cc(Cl)cnc1C(F)F [Example 385, 5-chloro-2-(difluoromethyl)-N-((1r,4r)-4-((3-(1-(2-hydroxyethyl)-1H-benzo[d][1,2,3]triazol-5-yl)-2-oxo-2,3-dihydro-1H-benzo[d]imidazol-1-yl)methyl)cyclohexyl)nicotinamide] |
| < 0.3 | Cn1cnc2cc(-n3c(=O)n(C[C@H]4CC[C@H](NC(=O)c5cc(Cl)cnc5C(F)F)CC4)c4ccccc43)ccc21 [Example 386, 5-chloro-2-(difluoromethyl)-N-((1r,4r)-4-((1′-methyl-2-oxo-1′H-[1,5′-bibenzo[d]imidazol]-3(2H)-yl)methyl)cyclohexyl)nicotinamide] |
| < 0.3 | O=C(N[C@H]1CC[C@H](Cn2c(=O)n(-c3ccc4ncsc4c3)c3ncccc32)CC1)c1cc(Cl)cnc1C(F)F [Example 387, N-((1r,4r)-4-((3-(benzo[d]thiazol-6-yl)-2-oxo-2,3-dihydro-1H-imidazo[4,5-b]pyridin-1-yl)methyl)cyclo-hexyl)-5-chloro-2-(difluoro-methyl)nicotinamide] |
| < 0.3 | Cc1ccc(-n2c(=O)n(C[C@H]3CC[C@H](NC(=O)c4cc(Cl)cnc4C(F)F)CC3)c3cccnc32)cc1 [Example 389, 5-chloro-2-(difluoromethyl)-N-((1r,4r)-4-((2-oxo-3-(p-tolyl)-2,3-dihydro-1H-imidazo[4,5-b]pyridin-1-yl)methyl)cyclohexyl)nicotinamide] |
| < 0.3 | CNC(=O)c1ccc(-n2c(=O)n(C[C@H]3CC[C@H](NC(=O)c4cc(Cl)cnc4C(F)F)CC3)c3ccc(OC)cc32)cn1 [Example 390, 5-(3-(((1r,4r)-4-(5-chloro-2-(difluoromethyl)nicotinamido)cyclohexyl)methyl)-6-me-thoxy-2-oxo-2,3-dihydro-1H-benzo[d]imidazol-1-yl)-N-methylpicolinamide] |
| < 0.3 | CNc1cnc(-n2c(=O)n(C[C@H]3CC[C@H](NC(=O)c4cc(Cl)cnc4C(F)F)CC3)c3ccccc32)cn1 [Example 391, 5-chloro-2-(difluoromethyl)-N-((1r,4r)-4-((3-(5-(methyl-amino)pyrazin-2-yl)-2-oxo-2,3-dihydro-1H-benzo[d]imidazol-1-yl)methyl)cyclohexyl) nicotinamide] |
| < 0.3 | O=C(N[C@H]1CC[C@H](Cn2c(=O)n(-c3ccc4ncccc4c3)c3ccccc32)CC1)c1cc(Cl)cnc1C(F)F [Example 392, 5-chloro-2-(difluoromethyl)-N-((1r,4r)-4-((2-oxo-3-(quinolin-6-yl)-2,3-dihydro-1H-benzo[d]imidazol-1-yl)methyl)cyclohexyl)nicotinamide] |
| < 0.3 | O=C(N[C@H]1CC[C@H](Cn2c(=O)n(-c3cnc4ncccc4c3)c3ccccc32)CC1)c1cc(Cl)cnc1C(F)F [Example 393, N-((1r,4r)-4-((3-(1,8-naph-thyridin-3-yl)-2-oxo-2,3-dihydro-1H-benzo[d]imidazol-1-yl)methyl)cyclohexyl)-5-chloro-2-(difluoromethyl) nicotinamide] |
| < 0.3 | O=C(N[C@H]1CC[C@H](Cn2c(=O)n(-c3ccc4ncncc4c3)c3ccccc32)CC1)c1cc(Cl)cnc1C(F)F [Example 394, 5-chloro-2-(difluoromethyl)-N-((1r,4r)-4-((2-oxo-3-(quinazolin-6-yl)-2,3-dihydro-1H-benzo[d]imidazol-1-yl)methyl)cyclohexyl)nicotinamide] |
| < 0.3 | Cc1ncc(Cl)cc1C(=O)N[C@H]1CC[C@H](Cn2c(=O)n(-c3ccc4cccnc4c3)c3ccccc32)CC1 [Example 395, 5-chloro-2-methyl-N-((1r,4r)-4-((2-oxo-3-(quinolin-7-yl)-2,3-dihydro-1H-benzo[d]imidazol-1-yl)methyl)cyclo-hexyl)nicotinamide] |
| < 0.3 | Cc1ncc(Cl)cc1C(=O)N[C@H]1CC[C@H](Cn2c(=O)n(-c3ccc4ccncc4c3)c3ccccc32)CC1 [Example 396, 5-chloro-N-((1r,4r)-4-((3-(isoquinolin-7-yl)-2-oxo-2,3-dihydro-1H-benzo[d]imidazol-1-yl)methyl)cyclohexyl)-2-methyl-nicotinamide] |
| < 0.3 | O=C(N[C@H]1CC[C@H](Cn2c(=O)n(-c3ccc4cnccc4c3)c3ccccc32)CC1)c1cc(Cl)cnc1C(F)F [Example 397, 5-chloro-2-(difluoromethyl)-N-((1r,4r)-4-((3-(isoquinolin-6-yl)-2-oxo-2,3-dihydro-1H-benzo[d]imidazol-1-yl)methyl)cyclohexyl)nicotinamide] |
